Results on two compounds are retold here after patent publication US9012640B2, “Cabergoline derivatives” (MAP Pharmaceuticals, Inc., priority 2012, dated 2015).

Assay [1] concerns the target T1, Recombinant human serotonin receptor 5-HT2A (Homo sapiens, UniProt P28223).
T1 construct: expressed in transfected cells; host or cells: CHO-K1 (coexpressing mitochondrial apoaequorin)
Put plainly: Aequorin assay, receptor agonist/antagonist activity, CHO-K1 cells. The format is cell-based. The method, then:
(§1) Compound 1 was synthesized as described above and assayed for receptor activity against a panel of dopaminergic and serotoninergic receptors. Recombinant human serotonin receptors 5-HT2A, and 5-HT2B were expressed in CHO-K1 cells and activity (receptor agonist/antagonist activity) was assayed using an Aequorin assay (coexpression of mitochondrial apoaequorin). Compound 1 was used at a concentration of 0.010 nM to 20,000 nM for agonist activity and 0.005 nM to 10,000 nM for antagonist activity.

Assay [2] deals with T2, Recombinant human serotonin receptor 5-HT2B (Homo sapiens, UniProt P41595).
T2 construct: expressed in transfected cells; host or cells: CHO-K1 (coexpressing mitochondrial apoaequorin)
T2 sequence (P41595 whole entry): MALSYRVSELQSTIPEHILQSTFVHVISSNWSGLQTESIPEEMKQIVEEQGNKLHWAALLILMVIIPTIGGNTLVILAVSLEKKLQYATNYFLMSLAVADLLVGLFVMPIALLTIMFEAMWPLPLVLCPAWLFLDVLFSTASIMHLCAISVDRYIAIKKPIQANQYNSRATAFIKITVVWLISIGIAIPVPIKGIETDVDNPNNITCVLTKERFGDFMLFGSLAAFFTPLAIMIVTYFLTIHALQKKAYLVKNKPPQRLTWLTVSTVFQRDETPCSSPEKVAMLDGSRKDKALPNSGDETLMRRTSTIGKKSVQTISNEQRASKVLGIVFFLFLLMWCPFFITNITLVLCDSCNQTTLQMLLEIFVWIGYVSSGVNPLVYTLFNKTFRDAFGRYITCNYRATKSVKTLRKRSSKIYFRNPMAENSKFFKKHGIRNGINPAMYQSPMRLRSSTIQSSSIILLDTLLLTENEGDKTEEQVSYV
Described as above. The format is cell-based. The procedure:
as §1

Assay [3] addresses T3, serotonin receptor 5-HT1B (Homo sapiens, UniProt P28222). As to the kind of experiment: GTPγS functional assay. The assay is classed as biochemical. To be noted: 0.01 nM to 10,000 nM. The procedure: (§2) Recombinant human dopaminergic receptor D1, D2L, and D4 and serotonin receptor 5-HT1B and 5-HTID activity was assayed using a GTPΥS functional assay with Compound 1 at concentrations between 0.01 nM and 10,000 nM.

Assay [4] has as its target T4, Recombinant human dopaminergic receptor D4 (Homo sapiens, UniProt P21917).
T4 sequence (P21917 1-419): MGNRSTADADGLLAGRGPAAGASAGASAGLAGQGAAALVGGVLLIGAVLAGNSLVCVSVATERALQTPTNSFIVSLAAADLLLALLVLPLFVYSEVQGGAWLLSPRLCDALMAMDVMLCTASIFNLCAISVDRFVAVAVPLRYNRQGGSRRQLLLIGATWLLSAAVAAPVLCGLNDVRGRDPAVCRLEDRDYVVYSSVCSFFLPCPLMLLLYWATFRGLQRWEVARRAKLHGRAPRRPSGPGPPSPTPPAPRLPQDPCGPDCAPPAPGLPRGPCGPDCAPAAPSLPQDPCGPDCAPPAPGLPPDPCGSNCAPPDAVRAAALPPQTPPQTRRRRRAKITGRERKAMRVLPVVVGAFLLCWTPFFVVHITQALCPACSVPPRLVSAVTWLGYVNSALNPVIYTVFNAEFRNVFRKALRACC
As to the kind of experiment: GTPγS functional assay. The format is biochemical. The procedure: as §2

In assay [5] the target is Recombinant human dopaminergic receptor D1 (Homo sapiens, UniProt P21728). Put plainly: GTPγS functional assay. The format is biochemical. The procedure: as §2
Sequence of Recombinant human dopaminergic receptor D1 (P21728 whole entry): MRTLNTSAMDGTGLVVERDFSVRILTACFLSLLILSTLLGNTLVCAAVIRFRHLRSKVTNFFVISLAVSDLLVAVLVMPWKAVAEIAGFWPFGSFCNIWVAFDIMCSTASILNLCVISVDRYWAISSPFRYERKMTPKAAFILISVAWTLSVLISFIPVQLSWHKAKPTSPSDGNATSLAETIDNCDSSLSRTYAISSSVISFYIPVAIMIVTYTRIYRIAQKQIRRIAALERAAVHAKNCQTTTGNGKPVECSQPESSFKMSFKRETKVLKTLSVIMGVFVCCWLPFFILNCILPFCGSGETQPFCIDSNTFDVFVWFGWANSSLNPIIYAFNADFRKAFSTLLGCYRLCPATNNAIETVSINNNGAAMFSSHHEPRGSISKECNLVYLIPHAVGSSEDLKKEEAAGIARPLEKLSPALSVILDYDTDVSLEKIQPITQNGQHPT
The target of assay [6] is T5, serotonin receptor 5-HT1D (Homo sapiens, UniProt P28221). Put plainly: GTPγS functional assay. The assay is classed as biochemical. The procedure:
as §2

Assay [7] addresses Recombinant human dopaminergic receptor D2L (Homo sapiens, UniProt P14416). Put plainly: GTPγS functional assay. The conditions noted are these: read-out: EC50, agonist activity with the D2L receptor. The assay is classed as biochemical. The procedure:
as §2

The target of assay [8] is T3, serotonin receptor 5-HT1B. The conditions noted are these: read-out: EC50 on 5-HT1B receptors, reported; Newman-Tancredi et al. 2002; cited from earlier work.
The target of assay [9] is T5, serotonin receptor 5-HT1D. The conditions noted are these: cited from earlier work.
Assay [10] has as its target T4, Recombinant human dopaminergic receptor D4. The conditions noted are these: cited from earlier work.
The target of assay [11] is T2, Recombinant human serotonin receptor 5-HT2B. The conditions noted are these: reported, Newman-Tancredi et al. 2002; read-out: reported EC50 on 5-HT2B receptors; cited from earlier work.
The target of assay [12] is T1, Recombinant human serotonin receptor 5-HT2A. To be noted: reported, Newman-Tancredi et al. 2002; read-out: reported EC50 on 5-HT2A receptors; cited from earlier work.

Read-outs that look alike come from different tables or passages of the source.

T5 sequence (P28221 whole entry): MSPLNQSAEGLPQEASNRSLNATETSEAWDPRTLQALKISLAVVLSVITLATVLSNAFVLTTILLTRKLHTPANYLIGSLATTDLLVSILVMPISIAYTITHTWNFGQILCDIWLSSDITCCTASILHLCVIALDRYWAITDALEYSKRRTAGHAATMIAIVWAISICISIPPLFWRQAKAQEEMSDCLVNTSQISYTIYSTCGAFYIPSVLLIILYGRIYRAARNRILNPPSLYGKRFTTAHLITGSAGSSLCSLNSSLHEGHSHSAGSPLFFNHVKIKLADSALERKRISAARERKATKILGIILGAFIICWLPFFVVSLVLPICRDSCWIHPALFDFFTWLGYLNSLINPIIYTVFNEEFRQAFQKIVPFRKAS
T1 sequence (P28223 whole entry): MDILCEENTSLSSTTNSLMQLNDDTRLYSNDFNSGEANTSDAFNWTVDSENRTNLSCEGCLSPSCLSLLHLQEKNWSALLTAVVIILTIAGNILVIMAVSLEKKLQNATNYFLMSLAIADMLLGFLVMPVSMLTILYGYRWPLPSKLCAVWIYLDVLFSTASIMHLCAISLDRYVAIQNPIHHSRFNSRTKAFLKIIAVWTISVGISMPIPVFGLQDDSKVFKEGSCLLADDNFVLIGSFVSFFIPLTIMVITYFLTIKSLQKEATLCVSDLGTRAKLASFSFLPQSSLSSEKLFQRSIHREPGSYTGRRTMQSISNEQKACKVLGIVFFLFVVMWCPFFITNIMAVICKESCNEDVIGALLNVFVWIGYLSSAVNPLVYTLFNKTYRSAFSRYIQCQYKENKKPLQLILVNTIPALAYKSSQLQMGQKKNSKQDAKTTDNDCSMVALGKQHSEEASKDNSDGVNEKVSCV
T3 sequence (P28222 whole entry): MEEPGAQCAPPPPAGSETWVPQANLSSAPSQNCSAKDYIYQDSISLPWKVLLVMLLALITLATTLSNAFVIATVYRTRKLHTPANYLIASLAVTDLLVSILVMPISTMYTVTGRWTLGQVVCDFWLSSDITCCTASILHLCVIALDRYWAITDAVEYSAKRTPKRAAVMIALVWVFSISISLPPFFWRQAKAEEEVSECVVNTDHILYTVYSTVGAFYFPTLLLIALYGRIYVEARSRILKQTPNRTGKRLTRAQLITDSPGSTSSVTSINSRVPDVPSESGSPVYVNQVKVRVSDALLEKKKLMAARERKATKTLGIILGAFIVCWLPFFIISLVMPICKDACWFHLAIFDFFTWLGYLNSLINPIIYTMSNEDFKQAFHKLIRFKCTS
Sequence of Recombinant human dopaminergic receptor D2L (P14416 whole entry): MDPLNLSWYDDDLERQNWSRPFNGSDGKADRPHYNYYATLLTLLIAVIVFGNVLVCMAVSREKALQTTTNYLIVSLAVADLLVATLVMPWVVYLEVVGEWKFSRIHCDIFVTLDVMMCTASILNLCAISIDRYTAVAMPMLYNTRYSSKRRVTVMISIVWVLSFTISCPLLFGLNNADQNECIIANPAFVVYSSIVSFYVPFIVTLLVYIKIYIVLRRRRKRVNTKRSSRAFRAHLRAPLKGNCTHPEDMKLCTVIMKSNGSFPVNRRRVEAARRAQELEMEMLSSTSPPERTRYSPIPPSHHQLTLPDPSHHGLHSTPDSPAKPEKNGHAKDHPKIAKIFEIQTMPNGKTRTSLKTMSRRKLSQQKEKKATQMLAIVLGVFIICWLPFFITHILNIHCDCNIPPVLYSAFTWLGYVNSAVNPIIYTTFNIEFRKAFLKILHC

With `C=CCN1C[C@H](C(=O)N(CCCN(C)C)C(=O)NCC)C[C@@H]2c3cccc4[nH]c(C(F)(F)F)c(c34)C[C@H]21` [Compound 1], the EC50 – broadly, the midpoint of the concentration-response curve – turned out to be 946 nM in assay [1] (agonist activity, Aequorin assay, CHO-K1, read-out: EC50 on 5-HT2A receptors); 6050 nM in assay [2] (agonist activity, Aequorin assay, CHO-K1, read-out: EC50 on 5-HT2B receptors); 263 nM in assay [6] (GTPγS, read-out: EC50, agonist on 5-HT1D receptors); 12.6 nM in [7]. For the same compound, in assay [1] (as compared to cabergoline), the “5-HT2A receptor agonist activity in words” value is recorded as “weak”. The “5-HT2B receptor agonist activity in words” value in assay [2] (as compared to cabergoline) is on record as “weak”. For the same compound, the “activity on 5-HT1B receptors” value in assay [3] is recorded as “not active”. In addition, the Emax (as a rule, the size of the effect at its maximum, as opposed to the concentration needed) in assay [4] (GTPγS, receptor not given, follows the D2L/D4 comparison) is 26%; in assay [6] (GTPγS, read-out: Emax on 5-HT1D receptors) it was 31%. Besides, the “D2L to D4 receptor selectivity” value in [4] (when comparing EC50) is listed as 18 fold. Also, in [5], the “selectivity for the D2L receptor over the D1 receptor” value was “approximately 110 fold”. For the same compound, the “agonist activity on serotonin receptor 5-HT1D in words” value in assay [6] is recorded as “weak agonist activity”.

Consider `C=CCN1C[C@H](C(=O)N(CCCN(C)C)C(=O)NCC)C[C@@H]2c3cccc4[nH]cc(c34)C[C@H]21` [cabergoline, Cabergoline], for which the EC50 in assay [8] is 2240 nM; in [9] (Newman-Tancredi et al. 2002, read-out: EC50 on 5-HT1D receptors, reported), 16 nM; in [11] it was 2.6 nM; in [12] it was 7.8 nM. Moreover, the “Emax on 5-HT1D receptors, cabergoline comparison” value in assay [9] (comparison value for cabergoline) is 68%. Also, the “D2L to D4 receptor selectivity, reported” value in [10] (reported results for cabergoline) is listed as about 200 fold. Moreover, the “Emax, reported” value in [10] (reported values, Newman-Tancredi et al. 2002, receptor not given) was 49%.
